From PMC5146859, “Phase 1/2 study of pacritinib, a next generation JAK2/FLT3 inhibitor, in myelofibrosis or other myeloid malignancies” (Journal of Hematology & Oncology, 2016)

Tested on: patients with advanced myeloid malignancies
Assay: Phase 1 safety: adverse events (NCIC-CTCAE version 3.0)
Assay type: in vivo, human
Protocol: At screening/baseline, patients underwent a medical history, physical examination, vital sign assessment, ECOG PS assessment, electrocardiogram, and assessment of hematologic parameters and blood chemistry. Hematology/blood chemistry, physical examinations, and vital sign assessments were performed throughout treatment. Toxicity was assessed using the National Cancer Institute Common Terminology Criteria for Adverse Events (NCIC-CTCAE), version 3.0, with relationship to treatment assigned by the investigator and were recorded from the first dose of pacritinib until 30 days after the last dose. Bone marrow biopsy and/or aspirate samples were drawn at baseline, on day 1 of cycle 4 and cycle 10, as clinically indicated, and at the termination visit. Disease response and progression were determined using the relevant International Working Group (IWG) criteria.
The efficacy-evaluable population included those patients with a baseline and corresponding follow-up value. The safety population included all enrolled patients who received ≥1 dose of pacritinib.

For `C1=C/COCc2cc(ccc2OCCN2CCCC2)Nc2nccc(n2)-c2cccc(c2)COC/1` [pacritinib, 11-(2-pyrrolidin-1-yl-ethoxy)-14,19-dioxa-5,7,26-triaza-tetracyclo[19.3.1.1(2,6). 1(8,12)]heptacosa-1(25),2(26),3,5,8,10,12(27),16,21,23-decaene], the “Treatment-emergent AE: Dehydration” value (phase 1, 200 mg, n = 9) was 0 n (%), the “Treatment-emergent AE: Diarrhea” value (phase 1, 200 mg, n = 9) was 5 (55.6) n (%) and the “Treatment-emergent AE: Dizziness” value (phase 1, 200 mg, n = 9) was 2 (22.2) n (%). For the same compound, the “Treatment-emergent AE: Dyspnea” value (phase 1, 200 mg, n = 9) was 0 n (%), the “Treatment-emergent AE: Edema peripheral” value (phase 1, 200 mg, n = 9) was 1 (11.1) n (%) and the “Treatment-emergent AE: Epistaxis” value (phase 1, 200 mg, n = 9) was 1 (11.1) n (%). For the same compound, the “Treatment-emergent AE: Fatigue” value (phase 1, 200 mg, n = 9) was 3 (33.3) n (%), the “Treatment-emergent AE: Hyperbilirubinemia” value (phase 1, 200 mg, n = 9) was 1 (11.1) n (%) and the “Treatment-emergent AE: Hyperuricemia” value (phase 1, 200 mg, n = 9) was 0 n (%). For the same compound, the “Treatment-emergent AE: Insomnia” value (phase 1, 200 mg, n = 9) was 2 (22.2) n (%), the “Treatment-emergent AE: Nausea” value (phase 1, 200 mg, n = 9) was 2 (22.2) n (%) and the “Treatment-emergent AE: Neutropenia” value (phase 1, 200 mg, n = 9) was 0 n (%). For the same compound, the “Treatment-emergent AE: Night sweats” value (phase 1, 200 mg, n = 9) was 1 (11.1) n (%), the “Treatment-emergent AE: Pain in extremity” value (phase 1, 200 mg, n = 9) was 0 n (%) and the “Treatment-emergent AE: Petechiae” value (phase 1, 200 mg, n = 9) was 0 n (%). The “Treatment-emergent AE: Pyrexia” value (phase 1, 200 mg, n = 9) was 2 (22.2) n (%), the “Treatment-emergent AE: Skin lesion” value (phase 1, 200 mg, n = 9) was 1 (11.1) n (%) and the “Treatment-emergent AE: Thrombocytopenia” value (phase 1, 200 mg, n = 9) was 0 n (%). The “Treatment-emergent AE: Upper respiratory tract infection” value (phase 1, 200 mg, n = 9) was 2 (22.2) n (%), the “Treatment-emergent AE: Vomiting” value (phase 1, 200 mg, n = 9) was 4 (44.4) n (%) and the “Treatment-emergent AE: Abdominal distension” value (phase 1, 300 mg, n = 6) was 1 (16.7) n (%). The “Treatment-emergent AE: Abdominal pain” value (phase 1, 300 mg, n = 6) was 1 (16.7) n (%), the “Treatment-emergent AE: Anemia” value (phase 1, 300 mg, n = 6) was 1 (16.7) n (%) and the “Treatment-emergent AE: Any AE” value (phase 1, 300 mg, n = 6) was 6 (100.0) n (%). The “Treatment-emergent AE: Asthenia” value (phase 1, 300 mg, n = 6) was 0 n (%), the “Treatment-emergent AE: Back pain” value (phase 1, 300 mg, n = 6) was 1 (16.7) n (%) and the “Treatment-emergent AE: Cardiac murmur” value (phase 1, 300 mg, n = 6) was 0 n (%). The “Treatment-emergent AE: Chills” value (phase 1, 300 mg, n = 6) was 0 n (%), the “Treatment-emergent AE: Constipation” value (phase 1, 300 mg, n = 6) was 1 (16.7) n (%) and the “Treatment-emergent AE: Cough” value (phase 1, 300 mg, n = 6) was 1 (16.7) n (%). The “Treatment-emergent AE: Decreased appetite” value (phase 1, 300 mg, n = 6) was 0 n (%), the “Treatment-emergent AE: Dehydration” value (phase 1, 300 mg, n = 6) was 0 n (%) and the “Treatment-emergent AE: Diarrhea” value (phase 1, 300 mg, n = 6) was 3 (50.0) n (%). For the same compound, the “Treatment-emergent AE: Dizziness” value (phase 1, 300 mg, n = 6) was 1 (16.7) n (%), the “Treatment-emergent AE: Dyspnea” value (phase 1, 300 mg, n = 6) was 0 n (%) and the “Treatment-emergent AE: Edema peripheral” value (phase 1, 300 mg, n = 6) was 0 n (%). The “Treatment-emergent AE: Epistaxis” value (phase 1, 300 mg, n = 6) was 2 (33.3) n (%), the “Treatment-emergent AE: Fatigue” value (phase 1, 300 mg, n = 6) was 2 (33.3) n (%) and the “Treatment-emergent AE: Hyperbilirubinemia” value (phase 1, 300 mg, n = 6) was 1 (16.7) n (%). The “Treatment-emergent AE: Hyperuricemia” value (phase 1, 300 mg, n = 6) was 0 n (%), the “Treatment-emergent AE: Insomnia” value (phase 1, 300 mg, n = 6) was 1 (16.7) n (%) and the “Treatment-emergent AE: Nausea” value (phase 1, 300 mg, n = 6) was 3 (50.0) n (%). For the same compound, the “Treatment-emergent AE: Neutropenia” value (phase 1, 300 mg, n = 6) was 1 (16.7) n (%), the “Treatment-emergent AE: Night sweats” value (phase 1, 300 mg, n = 6) was 0 n (%) and the “Treatment-emergent AE: Pain in extremity” value (phase 1, 300 mg, n = 6) was 1 (16.7) n (%). For the same compound, the “Treatment-emergent AE: Petechiae” value (phase 1, 300 mg, n = 6) was 0 n (%), the “Treatment-emergent AE: Pyrexia” value (phase 1, 300 mg, n = 6) was 1 (16.7) n (%) and the “Treatment-emergent AE: Skin lesion” value (phase 1, 300 mg, n = 6) was 0 n (%). For the same compound, the “Treatment-emergent AE: Thrombocytopenia” value (phase 1, 300 mg, n = 6) was 1 (16.7) n (%), the “Treatment-emergent AE: Upper respiratory tract infection” value (phase 1, 300 mg, n = 6) was 1 (16.7) n (%) and the “Treatment-emergent AE: Vomiting” value (phase 1, 300 mg, n = 6) was 2 (33.3) n (%). For the same compound, the “Treatment-emergent AE: Abdominal distension” value (phase 1, 400 mg, n = 6) was 3 (50.0) n (%), the “Treatment-emergent AE: Abdominal pain” value (phase 1, 400 mg, n = 6) was 2 (33.3) n (%) and the “Treatment-emergent AE: Anemia” value (phase 1, 400 mg, n = 6) was 2 (33.3) n (%). The “Treatment-emergent AE: Any AE” value (phase 1, 400 mg, n = 6) was 6 (100.0) n (%), the “Treatment-emergent AE: Asthenia” value (phase 1, 400 mg, n = 6) was 0 n (%) and the “Treatment-emergent AE: Back pain” value (phase 1, 400 mg, n = 6) was 2 (33.3) n (%). The “Treatment-emergent AE: Cardiac murmur” value (phase 1, 400 mg, n = 6) was 1 (16.7) n (%), the “Treatment-emergent AE: Chills” value (phase 1, 400 mg, n = 6) was 1 (16.7) n (%) and the “Treatment-emergent AE: Constipation” value (phase 1, 400 mg, n = 6) was 2 (33.3) n (%). For the same compound, the “Treatment-emergent AE: Cough” value (phase 1, 400 mg, n = 6) was 1 (16.7) n (%), the “Treatment-emergent AE: Decreased appetite” value (phase 1, 400 mg, n = 6) was 3 (50.0) n (%) and the “Treatment-emergent AE: Dehydration” value (phase 1, 400 mg, n = 6) was 2 (33.3) n (%). The “Treatment-emergent AE: Diarrhea” value (phase 1, 400 mg, n = 6) was 6 (100.0) n (%), the “Treatment-emergent AE: Dizziness” value (phase 1, 400 mg, n = 6) was 1 (16.7) n (%) and the “Treatment-emergent AE: Dyspnea” value (phase 1, 400 mg, n = 6) was 2 (33.3) n (%). For the same compound, the “Treatment-emergent AE: Edema peripheral” value (phase 1, 400 mg, n = 6) was 2 (33.3) n (%), the “Treatment-emergent AE: Epistaxis” value (phase 1, 400 mg, n = 6) was 1 (16.7) n (%) and the “Treatment-emergent AE: Fatigue” value (phase 1, 400 mg, n = 6) was 2 (33.3) n (%). The “Treatment-emergent AE: Hyperbilirubinemia” value (phase 1, 400 mg, n = 6) was 1 (16.7) n (%), the “Treatment-emergent AE: Hyperuricemia” value (phase 1, 400 mg, n = 6) was 0 n (%) and the “Treatment-emergent AE: Insomnia” value (phase 1, 400 mg, n = 6) was 1 (16.7) n (%). For the same compound, the “Treatment-emergent AE: Nausea” value (phase 1, 400 mg, n = 6) was 4 (66.7) n (%), the “Treatment-emergent AE: Neutropenia” value (phase 1, 400 mg, n = 6) was 1 (16.7) n (%) and the “Treatment-emergent AE: Night sweats” value (phase 1, 400 mg, n = 6) was 2 (33.3) n (%). The “Treatment-emergent AE: Pain in extremity” value (phase 1, 400 mg, n = 6) was 0 n (%).
